In patent US7507766B2, “Treatment of cancers” (Pharma Mar, S.A., priority 2000, dated 2009):
“Also recorded” adds a separate entry of the source. Starred links: 1 amine or outer side, 2 acyl side, 3 side chain; linkers in the order of their positions; H or OH if unused. Positions of bridges follow the written chain, without caps; N, C: chain ends. Non-standard residues stand in square brackets, D forms with d. Residues, ends and D or L forms follow the SMILES beside them. *: point of attachment. X1 = CC[C@H](C)[C@@H](N[*:1])[C@@H](O)CC(=O)O[C@H](C(=O)[C@H](C)C(=O)[*:2])C(C)C; NMeY = CN[C@@H](Cc1ccc(O)cc1)C(=O)O; dNMeL = CN[C@H](CC(C)C)C(=O)O; Pyruvoyl = CC(=O)C(=O)*

What was measured:
[1] = Phase I studies: aplidine myotoxicity and L-carnitine as myoprotector; type: in vivo, human
Protocol: More generally, the invention involves the use of a muscle protector in conjunction with aplidine therapy. We have found in particular that carnitine is beneficial in treating myotoxicity that is associated with chemotherapy with the experimental drug aplidine. […] When L-carnitine 4.5 g/day was added to the therapy (at doses of 1.5 g three times daily), or 0.1 mg/kg (at doses of 0.033 mg 3 times daily) patients were able to tolerate doses of aplidine up to 6000 mcg/m 2 every second week. […] Therefore, muscle protectors such as L-carnitine is a useful myoprotector for patients being treated with aplidine or an aplidine analogue.
L-carnitine at a dose of 1.5 grams 3 times per day or 0.033 g/kg 3 times per day was started in all patients of study APL-A-003-98.

[2] = system: panel of 25 human tumor cell lines; experiment: tumor protection by L-carnitine in panel of tumor cell lines; type: cell-based; conditions: initial results
Protocol: The possibility of tumor protection by L-carnitine was evaluated using a panel of 25 human tumor cell lines.

[3] = system: gene (FLT1) encoding the receptor of the Vascular Endothelial Growth Factor (VEGF); experiment: expression of the gene FLT1; type: cell-based
VEGF protein = experiment: production of VEGF protein by tumour cells; type: cell-based
human bladder cancer = human bladder cancer animal models; type: in vivo; conditions: complete remissions in some animal models
[4] = stability of aplidine solution and lyophilised dosage form; conditions: heat and light stress testing
Protocol: In a currently preferred embodiment freeze-drying was performed from a […] solution of aplidine in 40% (v/v) tert-butanol in Water for Injection (Wfl) containing 25 mg/mL D-mannitol as bulking agent.

[5] = Phase I clinical studies: MTD, DLT and RD per dosing regime; type: in vivo, human
From the text: The Recommended Dose (RD) is the highest dose which can be safely administered to a patient producing tolerable, manageable and reversibly toxicity according to the Common Toxicity Criteria established by the National Cancer Institute, (USA) with no more than […] patients presenting any dose limiting toxicities (DLT). Guidelines for cancer therapy frequently call for administration of chemotherapeutic agents at the highest safe dose at which toxicity is manageable in order to achieve maximum efficacy (DeVita, V. T. Jr., Hellman, S. and Rosenberg, S. A., Cancer: Principles and Practice of Oncology, 3rd ed., 1989, Lipincott, Philadelphia).
DLTs for aplidine using this method of treatment were determined in clinical studies. These studies established a recommended dose level for differing kinds of dosing protocols.

[6] = Phase I study, 24 h continuous infusion every other week: toxicities; type: in vivo, human
Protocol: (§1) Definitions for patient toxicities are adopted from WHO Criteria and the responses determined following WHO Response Criteria.
(§2) A phase I and pharmacokinetic study of aplidine, given as a 24 h continuous infusion every other week in patients with solid tumours and non-Hodgkin lymphoma

[7] = Phase I study, 24 h continuous infusion every other week: pharmacokinetics; type: in vivo, human
Protocol: as §2

[8] = system: solid tumours and non-Hodgkin lymphoma; experiment: clinical trials: antitumour responses in patients; type: in vivo, human
Protocol: as §1, §2

[9] = system: human colon cancer cell line, HT-29; conditions: cited from earlier work
ornithine decarboxylase = molecular target: T1, ornithine decarboxylase (Homo sapiens, UniProt P11926); conditions: all three cell lines; cited from earlier work
T1 construct: endogenous in cells; host or cells: CT-1, CT-2 and HT-29 colon carcinoma cell lines
T1 sequence (P11926 1-461): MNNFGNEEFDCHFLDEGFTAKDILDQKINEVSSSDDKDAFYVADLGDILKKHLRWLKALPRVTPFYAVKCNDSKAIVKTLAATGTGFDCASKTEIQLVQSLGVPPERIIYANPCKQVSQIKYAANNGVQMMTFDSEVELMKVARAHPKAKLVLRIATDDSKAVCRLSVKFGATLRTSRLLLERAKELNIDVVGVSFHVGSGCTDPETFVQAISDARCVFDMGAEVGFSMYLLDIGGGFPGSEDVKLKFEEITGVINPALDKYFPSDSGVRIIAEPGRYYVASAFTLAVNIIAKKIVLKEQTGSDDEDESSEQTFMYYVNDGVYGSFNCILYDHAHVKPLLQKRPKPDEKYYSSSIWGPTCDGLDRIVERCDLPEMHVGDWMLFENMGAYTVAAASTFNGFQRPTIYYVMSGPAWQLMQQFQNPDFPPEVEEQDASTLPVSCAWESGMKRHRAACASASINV

MDA-MB231 = conditions: aplidine; cited from earlier work
MCF-7 = conditions: aplidine 50 mmol/L; cited from earlier work
spermidine and spermine = conditions: cited from earlier work
cell cycle = conditions: cited from earlier work
P388 leukaemia = conditions: mice; cited from earlier work
B16 melanoma = conditions: mice; cited from earlier work
lewis lung carcinomas = conditions: mouse, in vivo; cited from earlier work
[10] = system: Non-small cell lung cancer, breast cancer and melanoma cell lines; conditions: cited from earlier work
CT-1 = conditions: cited from earlier work
CT-2 = conditions: cited from earlier work
human cancer xenografts = conditions: cited from earlier work
[11] = dose level 200 mcg/m^2/2 wks, of 3 patients
[12] = dose level 400 mcg/m^2/2 wks, of 3 patients
[13] = dose level 800 mcg/m^2/2 wks, of 3 patients
[14] = dose level 1600 mcg/m^2/2 wks, of 6 patients
[15] = dose level 3200 mcg/m^2/2 wks, of 3 patients
[16] = dose level 4000 mcg/m^2/2 wks, of 3 patients
[17] = dose level 5000 mcg/m^2/2 wks, of 3 patients
[18] = dose level 6000 mcg/m^2/2 wks, of 12 patients
[19] = dose level 7000 mcg/m^2/2 wks, of 7 patients

Structure (SMILES): C[N+](C)(C)C[C@H](O)CC(=O)[O-] [L-carnitine, reference compound]
- increase of aplidine RD by L-carnitine prophylaxis ([1]; human, in vivo): 40%
- only toxicity reported for L-carnitine ([1]; human, in vivo): grade 1 abdominal discomfort and diarrhea
- L-carnitine dose below which it should not be decreased ([1]; in vivo): ≥ 3.5 grams per day
- duration of beneficial effect (normal creatine kinase values) ([1]; in vivo): at least 13 weeks
- outcome in 11 patients receiving L-carnitine prophylaxis from the beginning ([1]; in vivo): just an asymptomatic G1 increase in CK
- tolerability of L-carnitine ([1]; in vivo): well tolerated
- effect of L-carnitine on the antitumor activity of aplidine [2]: lack of effect

Structure (SMILES): CC[C@H](C)[C@H]1NC(=O)[C@@H](NC(=O)[C@@H](CC(C)C)N(C)C(=O)[C@@H]2CCCN2C(=O)C(C)=O)[C@@H](C)OC(=O)[C@H](Cc2ccc(OC)cc2)N(C)C(=O)[C@@H]2CCCN2C(=O)[C@H](CC(C)C)NC(=O)[C@@H](C)C(=O)[C@H](C(C)C)OC(=O)C[C@@H]1O [aplidine] (Pyruvoyl-P[dNMeL]T[X1]LP[NMeY](Me); ester 3-C)
- expression of FLT1 gene [3]: inhibits expression
- production of VEGF protein by tumour cells (VEGF protein): severely inhibit production
- activity on human bladder cancer (human bladder cancer): exceedingly high activity
- degradation in solution [4]: substantial degradation
- dose-limiting toxicity ([5]; 1-hour infusion for 5 consecutive days every 3 weeks): Muscular/long; also recorded: lasting emesis
- dose-limiting factor ([5]; 4 Phase I trials): skeletal muscle toxicity
- dose-limiting toxicity ([5]; 24 hour infusion every 2 weeks, L-carnitine daily): Flu-like
- dose-limiting toxicity ([5]; weekly 24 hour infusion for 3 weeks, 1 week rest): Muscular/; also recorded: hepatic
- RD of aplidine ([5]; with L-carnitine 0.1 g/kg/day in 3 portions, for Phase II studies): 7 mg/m^2
- muscle biopsies, E/M finding ([6]; 2 patients): partial disappearance of thick filaments of myosin
- dose limiting toxicity (muscular changes), patients ([6]; 6000 mcg/m^2): 1/9
- time to recovery of toxicity after treatment discontinuation ([6]; Pat #27): ≤ 3 weeks
- Nausea/vomiting G2, no. patients [6, 11]: 2
- Transaminitis G2, no. patients [6, 11]: 1
- Asthenia G2, no. patients [6, 12]: 2
- Hypertension G2, no. patients [6, 12]: 1
- Nausea/vomiting G2, no. patients [6, 12]: 1
- Flushing G1, no. patients [6, 13]: 1
- Muscle cramps G1 + G2, no. patients [6, 13]: 2
- Asthenia G2, no. patients [6, 14]: 2
- Asthenia G3, no. patients [6, 14]: 1
- Muscle cramps G1 + G2, no. patients [6, 14]: 1
- Nausea/vomiting G2, no. patients [6, 14]: 4
- Transaminitis G3, no. patients [6, 14]: (1)
- Asthenia G2, no. patients [6, 15]: 1
- Flushing G1, no. patients [6, 15]: 1
- Muscle cramps G1 + G2, no. patients [6, 15]: 2
- Muscle pain G2, no. patients [6, 15]: (1)
- Nausea/vomiting G3, no. patients [6, 15]: (1)
- Asthenia G2, no. patients [6, 16]: 1
- Flushing G1, no. patients [6, 16]: 1
- Muscle cramps G1 + G2, no. patients [6, 16]: 2
- Muscle pain G1, no. patients [6, 16]: 2
- Nausea/vomiting G2, no. patients [6, 16]: 2
- Pain central catheter G2, no. patients [6, 16]: 2
- Asthenia G3, no. patients [6, 17]: (1)
- CPK elevation G3, no. patients [6, 17]: (1) [1]
- CPK elevation G4, no. patients [6, 17]: (1) [1]
- Muscle cramps G1 + G2, no. patients [6, 17]: 2
- Muscle pain G1, no. patients [6, 17]: 1
- Muscle weakness G1, no. patients [6, 17]: 1
- Nausea/vomiting G2, no. patients [6, 17]: 1
- Transaminitis G2, no. patients [6, 17]: 1
- Asthenia G2, no. patients [6, 18]: 6
- CPK elevation G2, no. patients [6, 18]: 1(1)
- CPK elevation G3, no. patients [6, 18]: 1(1)
- Muscle cramps G1 + G2, no. patients [6, 18]: 1
- Muscle pain G1, no. patients [6, 18]: 1
- Muscle pain G2, no. patients [6, 18]: 2
- Muscle weakness G1, no. patients [6, 18]: 1(1)
- Muscle weakness G2, no. patients [6, 18]: 1(1)
- Nausea/vomiting G2, no. patients [6, 18]: 2
- Asthenia G2, no. patients [6, 19]: 2
- CPK elevation G2, no. patients [6, 19]: 1
- Flushing G1, no. patients [6, 19]: 1
- Muscle pain G1, no. patients [6, 19]: 1
- Nausea/vomiting G2, no. patients [6, 19]: 1
- Neutrophenia G4, no. patients [6, 19]: 1
- Transaminitis G2, no. patients [6, 19]: 1
- t ½ in the 3 patients with clear muscular toxicity ([7]; 24 h infusion): > 44 h
- coefficient of variation of CL (interpatient) ([7]; human, in vivo): 62%
- PK profile ([7]; low sample size): dose-linear
- terminal phase median half-life ([7]; preliminary compartmental analysis, 24 h infusion): 25.8 h
- initial phase median half-life ([7]; preliminary compartmental analysis, first-order 2-compartment model): 0.64 h
- t ½, median ([7]; quartiles 15.7-35.0): 23.8 h
- plasma CL, median ([7]; quartiles 192-415): 252 mL/min/m^2
- Vss, median ([7]; quartiles 274-638): 413 L/m^2
- responses in cancer patients ([8]; clinical trials): Responses in cancer patients have been observed
- antitumour activity in patients ([8]; patients with NHL and renal carcinoma): Antitumour activity has been also noted
- toxicity in some subjects without L-carnitine ([1]; 24-hour infusion, 4500 mcg/m^2 every week, then 6000 mcg/m^2 every second week): muscular and skeletal toxicity
- new dose-limiting factor under L-carnitine prophylaxis ([1]; 24 h every other week infusion study): non-muscular
- electron microscopy of muscle, most important change ([1]; biopsied patients): disappearance of thick filaments
- dose from which muscle cramps occur (mild cases) ([1]; every 2 weeks): ≥ 3200 mcg/m2
- onset of myotoxicity, number of infusions, median ([1]; in vivo): 4 infusions
- relationship of myotoxicity to exposure ([1]; in vivo): related to prolonged exposure rather than high exposure or concentrations
- reversible increases in creatin-kinase (CK), grade reached ([1]; more severe cases): ≤ 3 grade
- cytotoxic activity [9]: dose-dependent cytotoxic activity
- ornithine decarboxylase activity (ornithine decarboxylase): decreased ornithine decarboxylase activity
- growth inhibition (MDA-MB231): 17%
- growth inhibition (MCF-7): 47%
- spermidine and spermine in treated cells (spermidine and spermine): significant increase
- cell cycle perturbations (cell cycle): did not induce any apparent cell cycle pertubations
- activity against implanted P388 leukaemia (P388 leukaemia): active
- optimal dose (P388 leukaemia): 160 micro/kg
- activity against implanted B16 melanoma (B16 melanoma): active
- optimal dose (B16 melanoma): 160 micro/kg
- activity in SC implanted lewis lung carcinomas (lewis lung carcinomas): active
- growth of tumour cell lines ([10]; continuous exposure to low concentrations, non-Hodgkin's lymphoma, melanoma, breast, ovarian, non-small cell lung cancers): inhibited the growth
- concentration at which cell lines were sensitive ([10]; continuous exposure): >= 0.001 micromol/L
- cytotoxic activity (CT-1): dose-dependent cytotoxic activity
- cytotoxic activity (CT-2): dose-dependent cytotoxic activity
- relative sensitivity among CT-1, CT-2, HT-29 (CT-2; most proliferative line): most sensitive
- remissions (human cancer xenografts; 2.1 mg/kg): near complete remissions in some animals
- treated/control (T/C) tumour ratio (human cancer xenografts; 2.1 mg/kg): 9%
- maximum tolerated dose (human cancer xenografts; mice): 2.1 mg/kg
